Test results as given in US20240209011A1, “HETEROAROMATIC PHOSPHONIUM SALTS FOR TREATING CANCER” (FLORATEK PHARMA S.A., priority 2021, published 2024).

Tests used:
Assay type in all cases: cell-based
LU-01-0004 = experiment: PDX-derived cell culture cytotoxicity (CellTiter-Glo); details: 120 h; lung PDX LU-01-0004; absolute IC50; 5 days
Method: (§1) PDX-derived cell cultures were obtained from tumors explanted from mice and isolated by mechanical and enzymatic dissociation. […] Cells were harvested and seeded in 96-wells plates at a density of 1.25 to 5×10^3 cells/well for cytotoxicity assays. Cells were incubated 48 h at 37° C. prior to addition of test molecules and vehicle (DMSO, 0.1%) at desired final concentrations. Cell viability was assessed before drugs' addition (To) and 5 days after test molecules addition by measuring ATP cell content using CellTiter-Glo® Luminescent Cell Viability Assay (Promega) according to the manufacturer's instructions. Luciferase activity was measured on a luminometer (PerkinElmer® EnVision™). Each concentration of compounds was tested in triplicate.
(§2) Viability was calculated as a percentage of ATP value compared to vehicle treated controls.
(§3) For PDX primary cell cultures, the tumour tissue was washed with PBS containing antibiotic-antimycotic and non-tumour tissue and necrotic tumour tissues were separated. The tumour tissue was transferred to a new dish and cut into 1-2 mm^3 fragments, resuspended in RPMI-1640 medium and centrifuged at 1,200 rpm for 6 min at room temperature. The pelleted material was resuspended with 15 mL of Tumour Cell Digestion Solution and incubated at 37° C. for 1 hour with agitation. Following further addition of media, centrifugation and passage through a […] cell strainer, the homogenous cell mixture was layered onto 15 mL of Ficoll-Paque PLUS in a 50 mL conical tube and centrifuged for 15 min at 1,600 rpm. The interface cells were collected, washed with media, separated by centrifugation at 1,200 rpm. The cell pellet was resuspended in serum free media supplemented with growth factors. 10,000 cells/wells were plated in a 96 well plate and incubated at 37° C., 5% CO2, 95% air and 100% relative humidity overnight. The cytotoxicity assay was conducted as above. IC50 values represent absolute IC50.

BR-05-0399 = experiment: as above; details: 120 h; breast PDX BR-05-0399; absolute IC50; 5 days
Method: as §1, §2, §3

PC-07-0059 = experiment: as above; details: 120 h; pancreatic PDX PC-07-0059; absolute IC50; 5 days
Method: as §1, §2, §3

ST-02-0173 = experiment: as above; details: 120 h; stomach PDX ST-02-0173; absolute IC50; 5 days
Method: as §1, §2, §3

CH-17-0091 = experiment: as above; details: 120 h; bile duct PDX CH-17-0091; absolute IC50; 5 days
Method: as §1, §2, §3

CO-04-0700 = experiment: as above; details: 120 h; colon PDX CO-04-0700; absolute IC50; 5 days
Method: as §1, §2, §3

CO-04-0701 = experiment: as above; details: 120 h; colon PDX CO-04-0701; absolute IC50; 5 days
Method: as §1, §2, §3

ST-02-0007 = experiment: as above; details: 120 h; stomach PDX ST-02-0007; absolute IC50; 5 days
Method: as §1, §2, §3

ST-02-0322 = experiment: as above; details: 120 h; stomach PDX ST-02-0322; absolute IC50; 5 days
Method: as §1, §2, §3

CH-17-0098 = experiment: as above; details: 120 h; bile duct PDX CH-17-0098; absolute IC50; 5 days
Method: as §1, §2, §3

ST-02-0012 = experiment: as above; details: 120 h; stomach PDX ST-02-0012; absolute IC50; 5 days
Method: as §1, §2, §3

PC-07-0045 = experiment: as above; details: 120 h; pancreatic PDX PC-07-0045; absolute IC50; 5 days
Method: as §1, §2, §3

LU-01-0010 = experiment: as above; details: 120 h; lung PDX LU-01-0010; absolute IC50; 5 days
Method: as §1, §2, §3

LU-01-0027 = experiment: as above; details: 120 h; lung PDX LU-01-0027; absolute IC50; 5 days
Method: as §1, §2, §3

CO-04-0722 = experiment: as above; details: 120 h; colon PDX CO-04-0722; absolute IC50; 5 days
Method: as §1, §2, §3

LU-01-0604 = experiment: as above; details: 120 h; lung PDX LU-01-0604; absolute IC50; 5 days
Method: as §1, §2, §3

breast PDX = experiment: Activity against breast PDX; details: growth of breast PDX; summary of Table 6
Method: as §1, §2, §3

SMILES	IC50 (LU-01-0004) [µM]	IC50 (BR-05-0399) [µM]	IC50 (PC-07-0059) [µM]	IC50 (ST-02-0173) [µM]	IC50 (CH-17-0091) [µM]	IC50 (CO-04-0700) [µM]	IC50 (CO-04-0701) [µM]	IC50 (ST-02-0007) [µM]	IC50 (ST-02-0322) [µM]	IC50 (CH-17-0098) [µM]	IC50 (ST-02-0012) [µM]	IC50 (PC-07-0045) [µM]	IC50 (LU-01-0010) [µM]	IC50 (LU-01-0027) [µM]	IC50 (CO-04-0722) [µM]	IC50 (LU-01-0604) [µM]	IC50 (breast PDX) [µM]
O=c1cc(-c2ccc(CCCC[P+](c3ccccc3)(c3ccccc3)c3ccccc3)cc2)oc2c3c(ccc12)OCO3.[Br-] [SND123, 4-[4-(6-oxo-[1,3]dioxolo[4,5-h]chromen-8-yl)phenyl]butyl-triphenylphosphonium bromide]	3	2.1	2.7	2.2	3	2.6	3.4	1.5	5.2	0.72	0.3	4	0.8	5.9	2.1	0.35	< 20
CCNC(=O)Oc1ccc2c(=O)cc(-c3ccc(CCCC[P+](c4ccccc4)(c4ccccc4)c4ccccc4)cc3)oc2c1OC(=O)NCC.[Br-] [SND124, 4-[4-[7,8-Bis(ethylcarbamoyloxy)-4-oxo-chromen-2-yl]phenyl]-butyltriphenylphosphonium bromide]	7.1	5.2	4.2	11.3	5.4	2.3	21.8	10.2	10.6	6.1	8.2	7	7	9.3	3.2	7.8	< 20
CCNC(=O)Oc1ccc2c(=O)cc(-c3ccc(CCCC[P+](c4ccccc4)(c4ccccc4)c4ccccc4)cc3)oc2c1O.[Br-] [SND126A, 4-[4-[7-(Ethylcarbamoyloxy)-8-hydroxy-4-oxo-chromen-2-yl]phenyl]butyltriphenylphosphonium bromide]	8.4	6.5	4.9	14.7	7.2	2.3	> 30	10.7	9.8	8.5	8.9	7.7	7.6	12	3.4	8.2	< 20
COc1c(O)ccc2c(=O)cc(-c3ccc(CCCC[P+](c4ccccc4)(c4ccccc4)c4ccccc4)cc3)oc12.[Br-] [SND140, (4-(4-(7-hydroxy-8-methoxy-4-oxo-4H-chromen-2-yl)phenyl)butyl)triphenylphosphonium bromide]	11.7	6	20.4	9.8	> 50	12.8	13.8	12	13.3	4.98	4.9	13.2	3	16	11.6	7.7	< 20
